Tested on: S. aureus
Assay: Clinical outcome of the prescribed antibiotic therapy (presence/absence of S. aureus in a second sample at end of first-line treatment)
Type: in vivo, patients diabétiques
Excerpt: • La Figure 1 représente des courbes de croissance de bactéries en fonction du milieu de culture. Sur cette figure, les ordonnées correspondent au logarithme d'unités formant colonie par millilitre de milieu de culture (Log UFC/ml) et les abscisses, au temps en heure (H). La Figure 1A représente les courbes correspondant à la croissance de 2 souches de S. aureus, Newman (gauche) et SAC1 (droite), dans le milieu BHI (courbe avec indicateurs ronds) et un exemple de milieu selon l'invention (MP) (courbe avec indicateurs carrés). La Figure 1B représente les courbes correspondant à la croissance de 2 souches de P. aeruginosa, PAO1 (gauche) et PAC1 (droite), dans le milieu BHI (courbe avec indicateurs ronds) et un exemple de milieu selon l'invention (MP) (courbe avec indicateurs carrés). La Figure 1C représente les courbes correspondant à la croissance de 2 souches cliniques S. aureus SAC1 et P. aeruginosa PAC1, en coculture dans le milieu BHI (P. aeruginosa BHI ou S. aureus BHI) et un exemple de milieu selon l'invention (MP) (P. aeruginosa MP ou S. aureus MP). La mesure de différence significative, réalisée par le test de Student, entre les valeurs d'UFC/mL est exprimée, soit par (***) qui correspond à une p-value <0,001, soit par (**) qui correspond à une p-value <0,01. • La Figure 2 représente les résultats obtenus d'une détermination de l'adhésion et de la formation de biofilm par dénombrement à 24h. Sur cette figure, les ordonnées correspondent au logarithme d'unités formant colonie par millilitre de milieu de culture (Log UFC/ml). La Figure 2A représente un histogramme ou diagramme en bâton du nombre de bactéries dénombrées suite à des cultures séparées de souche S. aureus Newman (Newman), S. aureus SAC1 (SAC 1), P. aeruginosa PAO1 (PAO1) ou P. aeruginosa PAC1 (PAC1), pendant 24H dans un milieu BHI (BHI) (bâtons noirs) ou dans un exemple de milieu selon l'invention (MP) (bâtons gris). La Figure 2B montre sous forme d'histogramme le nombre de bactéries dénombrées suite à des co-cultures des souches de référence S. aureus Newman et P. aeruginosa PAO1 (PAO1/Newman), ainsi que du couple de souches cliniques S. aureus SAC1 et P. aeruginosa PAC1 (PAC 1/SAC1), pendant 24H dans un milieu BHI (BHI) (bâtons noirs) ou dans un exemple de milieu selon l'invention (MP) (bâtons gris). La mesure de différence significative, réalisée par le test de Student, entre les valeurs d'UFC est exprimée, soit par (***) qui correspond à une p-value <0,001, soit par (**) qui correspond à une p-value <0,01. • La Figure 3 représente les résultats obtenus d'une détermination de sensibilité à des antibiotiques de souches cliniques de S. aureus issues d'infections de plaies du pied chez le diabétique. Les données cliniques, anonymisées, nécessaires à l'interprétation des résultats, consistaient en l'antibiothérapie donnée au patient, ainsi que la qualification par les médecins hospitaliers d'un succès ou échec thérapeutique. La définition de succès ou échec thérapeutique est définie comme suit. Le patient commence et suit l'antibiothérapie prescrite et un deuxième prélèvement microbiologique est effectué lors du dernier jour de traitement de la 1ère antibiothérapie (± 2 jours). Ce prélèvement est utilisé pour déterminer la présence/absence du pathogène ciblé par l'antibiothérapie, S. aureus. Si ce prélèvement a montré la persistance d'un S. aureus, l'antibiothérapie est en échec. A l'inverse, en cas d'absence de S. aureus, l'antibiothérapie est associée à un succès thérapeutique. Les antibiogrammes ont été réalisés classiquement sur une durée de 18h ± 2h en accord avec les recommandations de l'EUCAST. Une gamme de l'antibiotique à tester a été réalisée. • La Figure 3A montre sous forme d'histogramme les résultats des CMI déduites d'antibiogrammes sur 11 souches testées en présence d'amoxicilline / clavulanate de potassium (commercialisé par exemple sous le nom d'Augmentin (marque déposée)). […]

Molecule: cotrimoxazole
- Succès ou échec thérapeutique (souche C01P0 01): Echec
- Succès ou échec thérapeutique (souche C01P0 11): Succès
- Succès ou échec thérapeutique (souche C03P0 02): Echec
- Succès ou échec thérapeutique (souche C03P0 07): Echec

Molecule: amoxicilline / clavulanate de potassium [amoxicilline/clavulanate de potassium]
- Succès ou échec thérapeutique (souche C01P012): Succès
- Succès ou échec thérapeutique (souche C03P001): Succès
- Succès ou échec thérapeutique (souche C03P008): Echec
- Succès ou échec thérapeutique (souche C04P003): Succès
- Succès ou échec thérapeutique (souche C04P005f): Succès
- Succès ou échec thérapeutique (souche C04P005i): Succès
- Succès ou échec thérapeutique (souche C04P007): Echec
- Succès ou échec thérapeutique (souche C06P001f): Echec
- Succès ou échec thérapeutique (souche C06P001 i): Echec
- Succès ou échec thérapeutique (souche C06P003f): Echec
- Succès ou échec thérapeutique (souche C06P003i): Echec

Molecule: CCC[C@@H]1C[C@@H](C(=O)N[C@@H]([C@H]2O[C@H](SC)[C@H](O)[C@@H](O)[C@H]2O)[C@H](C)Cl)N(C)C1 [clindamycine]
- Succès ou échec thérapeutique (souche C01P009): Succès
- Succès ou échec thérapeutique (souche C01P010): Echec
- Succès ou échec thérapeutique (souche C03P003): Succès
- Succès ou échec thérapeutique (souche C03P004): Succès
- Succès ou échec thérapeutique (souche C03P005): Echec
- Succès ou échec thérapeutique (souche C03P009): Succès

— patent publication EP4060021A1, “MIMETIC MICROBIOLOGICAL CULTURE MEDIUM AND USES THEREOF” (BIOFILM PHARMA, priority 2021, dated 2022)
